We go through four molecules from publication PMC11990924, “Inhibition of Tyrosinase and Melanogenesis by Carboxylic Acids: Mechanistic Insights and Safety Evaluation” (Molecules, 2025).

The target in one data set is mushroom tyrosinase (Agaricus bisporus, UniProt C7FF04). The data set can be described thus: Inhibition of mushroom tyrosinase activity (L-DOPA, OD475). Type of data set: biochemical. To be noted: read-out: tyrosinase inhibition rate. As to the method: L-DOPA solution (5 mM) and tyrosinase (400 U/mL) (Sigma-Aldrich, St. Louis, MO, USA) were prepared in PBS buffer (pH 7.4) (Qingdao Hope Bio-Technology Co., Ltd., Qingdao, China). A reaction mixture was prepared by combining 240 μL of carboxylic acid at various concentrations, 360 μL of L-DOPA solution, and 120 μL of tyrosinase. […] Deionized water was used as the control.
Chain of mushroom tyrosinase (C7FF04 2-392): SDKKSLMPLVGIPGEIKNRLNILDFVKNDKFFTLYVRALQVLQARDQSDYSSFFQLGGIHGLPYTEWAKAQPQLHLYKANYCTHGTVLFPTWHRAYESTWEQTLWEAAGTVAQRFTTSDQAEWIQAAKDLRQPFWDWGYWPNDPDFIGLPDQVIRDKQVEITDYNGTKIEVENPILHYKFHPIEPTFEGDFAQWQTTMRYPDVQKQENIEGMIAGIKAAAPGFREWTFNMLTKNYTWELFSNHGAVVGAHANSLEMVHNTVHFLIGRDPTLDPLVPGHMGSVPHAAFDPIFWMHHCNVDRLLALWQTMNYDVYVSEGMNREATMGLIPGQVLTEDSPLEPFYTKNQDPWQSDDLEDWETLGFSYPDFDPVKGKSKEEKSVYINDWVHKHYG

Data set [1] has as its target T1, tyrosinase (Agaricus bisporus, UniProt C7FF04).
T1 construct: purchased Sigma-Aldrich
Put plainly: Fluorescence spectra analysis of tyrosinase. The data set is classed as binding, mushroom. Conditions: 6 mM; excitation 280 nm. As to the method:
Carboxylic acid solutions at various concentrations were mixed with PBS buffer and tyrosinase (final concentration of 60 U/mL) and then transferred to a black 96-well plate. Fluorescence analysis was conducted using a microplate reader (Infinite 200Pro, Tecan).

Data set [2] addresses T1, tyrosinase. Put plainly: Kinetic analysis of tyrosinase (Lineweaver–Burk). Conditions: for inhibition mechanism: Lineweaver–Burk double-reciprocal plots. Type of data set: biochemical, mushroom. As to the method:
L-DOPA solutions at various concentrations (0.5, 1, 2, and 4 mM) were prepared in PBS buffer (pH 7.4) and mixed with carboxylic acids at different concentrations and tyrosinase (final concentration of 60 U/mL). […] The reaction rates were calculated based on the OD values. To analyze the inhibition types of the four carboxylic acids on tyrosinase, double-reciprocal Lineweaver–Burk plots were constructed with 1/v (reaction rate) as the y-axis and 1/[S] (substrate concentration) as the x-axis. The maximum reaction velocity (Vmax) and Michaelis constant (Km) were determined using GraphPad Prism 10 (GraphPad Software, Massachusetts, USA).

Data set [3] in a line: pH of carboxylic acid mixed with PBS buffer, without tyrosinase. Type of data set: physicochemical. To be noted: in PBS buffer, absence of tyrosinase.
Data set [4] can be described thus: L-DOPA auto-oxidation analysis. To be noted: for L-DOPA auto-oxidation inhibition rate: 1.5 mM; for IC50: 37 °C, 12 h, calculated using SPSS, read-out: IC50 for L-DOPA auto-oxidation inhibition. As to the method: A 5 mM L-DOPA solution was prepared in PBS buffer (pH 7.4). Subsequently, 240 μL of carboxylic acid solution, 360 μL of L-DOPA solution, and 120 μL of PBS buffer were sequentially mixed. The mixture was then incubated at 37 °C for 12 h. […] Deionized water was used as the control. The inhibition of L-DOPA auto-oxidation was calculated using the same method as the melanin content analysis.

Data set [5] in a line: Cell viability of B16-F10 by MTT. To be noted: mouse, B16-F10 cells. The data set is classed as cell-based. As to the method:
B16-F10 cells were seeded in 96-well plates at a density of 1 × 10^5 cells/mL and cultured at 37 °C with 5% CO2 for 24 h. Subsequently, various concentrations of carboxylic acids were added, and the cells were further incubated for 24 h. Then, 6 μL of MTT (5 mg/mL) was added, and the cells were cultured for an additional 4 h. Afterward, 200 μL of DMSO was added to dissolve the formazan crystals by gently pipetting up and down. The absorbance at 570 nm (OD570) was measured using a microplate reader (Infinite 200Pro, Tecan), with deionized water serving as the control. The cell viability was calculated with Equation (2): (2) [(OD570 of sample)/OD570 of control]×100%

For a further data set, the system named is B16-F10 cells. The data set can be described thus: Melanin content analysis of B16-F10 cells (α-MSH stimulated). Type of data set: cell-based. Conditions: Mus musculus, B16-F10, α-MSH 1 μM, 48 h, read-out: melanin inhibition rate; for inhibition at 6000 µM: 6 mM. As to the method: A 900 μL cell suspension with an approximate density of 50% confluence was seeded into a 12-well plate and cultured for 24 h at 37 °C with 5% CO2. Subsequently, various concentrations of carboxylic acids were added, and the cells were further incubated for 1 h. Then, 1 μL of 1 mM α-melanocyte-stimulating hormone (α-MSH) solution was added to achieve a final concentration of 1 μM, and the cells were cultured for an additional 48 h at 37 °C with 5% CO2 to stimulate melanogenesis. Afterward, the cells were digested with trypsin, collected by centrifugation at 10,000 rpm for 5 min (Andreas Hettich GmbH & Co., KG, Tuttlingen, Germany), and the supernatant was discarded. Each tube was treated with 200 μL of 1 M NaOH solution and incubated in a water bath at 60 °C for 20 min. Following incubation, the samples were vortexed to ensure homogeneity, and 200 μL of each sample was transferred to a 96-well plate. The absorbance at 405 nm (OD405) was measured using a microplate reader (Infinite 200Pro, Tecan), and the data were recorded to calculate the melanin content, with deionized water serving as the control. The reduction in melanin content was calculated with Equation (3):(3) [(OD405 of control−OD405 of sample)/OD405 of control]×100%

For data set [6] the following is noted: cited from earlier work.
Another data set concerns rats. To be noted: cited from earlier work.
The test system of another data set is guinea pigs. To be noted: cited from earlier work.
The test system of another data set is tyrosinase and Tyrp 1/2. Conditions: Western blot; 300 and 500 μg/mL, 48 h intervals during 5 d culture; cited from earlier work. Background: Immunoblotting shows a protein as a band on a membrane.
The target of data set [7] is tyrosinase from BioVision, Inc. (claimed to be of human origin). Details: method as in PMID 38909081. To be noted: cited from earlier work.

Values after ≈ are worked out from the molar mass of the structure shown. Read-outs that look alike come from different tables or passages of the source.

T1 sequence (C7FF04 1-392 limits assumed): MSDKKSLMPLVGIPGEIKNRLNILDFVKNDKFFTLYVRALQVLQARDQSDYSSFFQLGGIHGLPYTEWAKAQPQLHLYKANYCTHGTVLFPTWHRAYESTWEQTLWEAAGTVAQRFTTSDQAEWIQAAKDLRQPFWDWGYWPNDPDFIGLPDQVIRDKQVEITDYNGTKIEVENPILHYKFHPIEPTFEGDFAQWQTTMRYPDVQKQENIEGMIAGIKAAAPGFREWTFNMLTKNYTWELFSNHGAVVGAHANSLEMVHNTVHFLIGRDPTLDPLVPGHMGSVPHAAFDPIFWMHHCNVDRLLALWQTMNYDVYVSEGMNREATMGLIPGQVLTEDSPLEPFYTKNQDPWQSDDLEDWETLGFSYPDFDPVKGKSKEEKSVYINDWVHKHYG

By inhibition is commonly meant the change of the read-out against control, counted positive when it falls. In general, Ki refers to a measure of affinity in units of concentration, obtained from inhibition or displacement. The IC50 is the midpoint of a concentration-inhibition curve. As usually defined, the viability is the share of living cells, or the viability signal relative to a control. On to `O=C(O)[C@@H]1CCC(O)=N1` [L-pyroglutamic acid], for which the inhibition at 6000 µM on mushroom tyrosinase (6 mM) is over 80%. The “decrease of tyrosinase fluorescence intensity” value at tyrosinase [1] was 48.6%. On tyrosinase [2], the Ki was determined as 1950 µM and the inhibition mechanism entry is “competitive inhibition”. In data set [3] (6 mM), this molecule returned a pH of 3.7. Besides, in data set [4], the “L-DOPA auto-oxidation inhibition rate” value is “exceeding 80%” and the IC50 is 660 µM. Besides, the viability at 24 h, 6 mM in [5] was over 90%. The inhibition at 6000 µM with B16-F10 cells amounted to 27.8%.
Turning to `O=C1O[C@H]([C@@H](O)CO)C(O)=C1O` [ascorbic acid], the “IC50 DOPA auto-oxidation inhibition” value in data set [6] is 989.6 µg/mL (≈ 5.62 mM).
On to `CC(O)C(=O)O` (centres unmarked) [lactic acid], for which the inhibition at 6000 µM on mushroom tyrosinase was 47%; with B16-F10 cells, 14.1%. The inhibition at 12000 µM was 89% at mushroom tyrosinase and 29.4% in the data set on B16-F10 cells (12 mM). In addition, the “decrease of tyrosinase fluorescence intensity” value on tyrosinase [1] was 45.0%. In addition, the Ki on tyrosinase [2] (GraphPad Prism, mixed-model or competitive model, read-out: inhibition constant (Ki)) is 2710 µM. Moreover, on tyrosinase [2], the inhibition mechanism result is on record as “mixed-type inhibition”. Further, the “inhibition constant (KIS) for enzyme–substrate complex” value against tyrosinase [2] (mixed-type inhibitors) came out at 17.032 mM. The results for the pH result in [3] (6 mM) and in [3] (12 mM) were “around 6” and 3.6, respectively. In data set [4], the “L-DOPA auto-oxidation inhibition rate” value is on record as “exceeding 80%”. In addition, in data set [4], the IC50 is 570 µM. For the same molecule, the viability at 24 h, 6 mM in [5] is over 90%. The same molecule showed a viability at 24 h, 12 mM in data set [5] (12 mM) of 97%. The “oral LD50” value in the data set with rats is listed as 3730 mg/kg; in the data set on guinea pigs it was 1810 mg/kg. Further, the “regulatory effect on melanogenesis-related proteins (tyrosinase and Tyrp 1/2)” value with tyrosinase and Tyrp 1/2 was “no significant regulatory effects”.
Consider `O=c1cc(CO)occ1O` [kojic acid, reference compound], for which the IC50 in data set [7] is 9.27 µM. The “IC50 DOPA auto-oxidation inhibition” value in data set [6] was 418.5 µg/mL (≈ 2.94 mM).
